One experiment concerns the target Aβ1-42 (Homo sapiens, UniProt P05067). The experiment is described as follows: Aβ1-42 self-aggregation inhibition assay (thioflavin T). The settings on record: inhibitor 10 μM, [Aβ]/[I]=5/1. Type of experiment: biochemical. The protocol:
As reported in a previously published protocol (cf. M. Bartolini et al., “Insight into the Kinetic of Amyloid Beta (1-42) Peptide Self-Aggregation: Elucidation of Inhibitors' Mechanism of Action. ChemBioChem 2007, vol. 8, pp. 2152-2161), HFIP pretreated Aβ1-42 samples (Bachem AG, Switzerland) were solubilized with a CH3CN/0.3 mM Na2CO3250 mM NaOH (48.4:48.4:3.2) mixture to obtain a 500 μM solution. Experiments were performed by incubating the peptide in 10 mM phosphate buffer (pH=8.0) containing 10 mM NaCl, at 30° C. for 24 h (final Aβ concentration 50 μM) with and without inhibitor (10 μM, Aβ/inhibitor=5/1). Blanks containing the tested inhibitors were also prepared and tested.

In a further experiment the target is human serum BChE (Homo sapiens (Human), UniProt P06276). The experiment is described as follows: BChE inhibition assay (Ellman). Type of experiment: biochemical. The protocol: BChE inhibitory activity determinations were carried out similarly by the method of Ellman et al., using 0.02 unit/mL of human serum BChE and 300 μM butyrylthiocholine, instead of AChE and acetylthiocholine, in a final volume of 300 μL.
human serum BChE, sequence (P06276 29-602): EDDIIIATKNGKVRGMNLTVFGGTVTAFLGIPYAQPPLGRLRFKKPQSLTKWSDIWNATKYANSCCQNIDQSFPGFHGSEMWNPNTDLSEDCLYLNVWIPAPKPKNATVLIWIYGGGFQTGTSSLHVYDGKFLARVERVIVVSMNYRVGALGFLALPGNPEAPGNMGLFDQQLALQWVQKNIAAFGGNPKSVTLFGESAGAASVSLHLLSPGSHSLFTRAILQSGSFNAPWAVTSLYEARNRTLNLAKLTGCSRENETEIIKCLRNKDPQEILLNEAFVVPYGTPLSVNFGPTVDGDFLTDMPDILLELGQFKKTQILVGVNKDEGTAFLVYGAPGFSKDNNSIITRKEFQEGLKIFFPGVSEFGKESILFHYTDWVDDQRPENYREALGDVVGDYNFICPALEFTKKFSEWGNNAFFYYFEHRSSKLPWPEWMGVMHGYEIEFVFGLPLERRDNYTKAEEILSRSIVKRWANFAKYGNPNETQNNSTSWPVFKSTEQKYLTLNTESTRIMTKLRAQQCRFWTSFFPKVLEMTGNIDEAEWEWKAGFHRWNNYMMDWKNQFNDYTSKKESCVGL
(§1) Results are expressed as mean±S.E.M. of at least 4 experiments performed in duplicate. DTNB, acetylthiocholine, butyrylthiocholine, and enzymes were purchased from Sigma.

Another experiment addresses β-Secretase (BACE-1) (Homo sapiens (Human), UniProt P56817). Kind of experiment: β-Secretase (BACE-1) inhibition assay. Type of experiment: biochemical. The protocol: β-Secretase (BACE-1, Sigma) inhibition studies were performed by employing a peptide mimicking APP sequence as substrate (methoxycoumarin-[…]dinitrophenyl, M-2420, Bachem). The following procedure was employed: 5 μL of test compound (or DMSO, if preparing a control well) were pre-incubated with 175 μL of the enzyme (in 20 mM sodium acetate containing CHAPS 0.1% w/v) for 1 h at room temperature. The substrate (3 μM, final concentration) was then added and left to react for 15 min. The fluorescence signal was read at λem=405 nm (λexc=320 nm). […] The fluorescence intensities with and without inhibitor were compared and the percent inhibition due to the presence of test compounds was calculated. The background signal was measured in control wells containing all the reagents, except BACE-1 and subtracted. […] Inhibition curves were obtained by plotting the % inhibition versus the logarithm of inhibitor concentration in the assay sample. The linear regression parameters were determined and the IC50 extrapolated (GraphPad Prism 4.0, GraphPad Software Inc.).

Experiment [1] deals with Electrophorus electricus (ee) AChE (Electrophorus electricus (Electric eel) (Gymnotus electricus), UniProt O42275). The experiment is described as follows: AChE inhibition assay (Ellman), eeAChE. Type of experiment: biochemical. On the procedure: AChE inhibitory activity of compounds (Ia)-(Ie) and (−)-(Ib) and (+)-(Ib) was evaluated spectrophotometrically at 25° C. by the method of Ellman et al., using recombinant human AChE (hAChE) and Electrophorus electricus (ee) AChE and acetylthiocholine iodide as substrate (cf. G. L. Ellman et al., “New and Rapid Colorimetric Determination of Acetylcholinesterase Activity” Biochem. Pharmacol. 1961, vol. 7, pp. 88-95). For eeAChE inhibitory activity determination, the reaction took place in a final volume of 300 μL of 0.1 M phosphate-buffered solution pH 8.0, containing 0.03 unit/mL of ee AChE and 333 μM 5,5′-dithiobis(2-nitrobenzoic) acid (DTNB) solution used to produce the yellow anion of 5-thio-2-nitrobenzoic acid. Inhibition curves were performed in duplicates using at least 10 increasing concentrations of inhibitor and preincubating at 37° C. for 20 min. One duplicate sample without inhibitor was always present to yield 100% of AChE activity. Then, substrate acetylthiocholine (450 μM) was added and the reaction was developed at 37° C. for 5 min. The color production was measured at 414 nm.
Electrophorus electricus (ee) AChE, sequence (O42275 whole entry, looked up): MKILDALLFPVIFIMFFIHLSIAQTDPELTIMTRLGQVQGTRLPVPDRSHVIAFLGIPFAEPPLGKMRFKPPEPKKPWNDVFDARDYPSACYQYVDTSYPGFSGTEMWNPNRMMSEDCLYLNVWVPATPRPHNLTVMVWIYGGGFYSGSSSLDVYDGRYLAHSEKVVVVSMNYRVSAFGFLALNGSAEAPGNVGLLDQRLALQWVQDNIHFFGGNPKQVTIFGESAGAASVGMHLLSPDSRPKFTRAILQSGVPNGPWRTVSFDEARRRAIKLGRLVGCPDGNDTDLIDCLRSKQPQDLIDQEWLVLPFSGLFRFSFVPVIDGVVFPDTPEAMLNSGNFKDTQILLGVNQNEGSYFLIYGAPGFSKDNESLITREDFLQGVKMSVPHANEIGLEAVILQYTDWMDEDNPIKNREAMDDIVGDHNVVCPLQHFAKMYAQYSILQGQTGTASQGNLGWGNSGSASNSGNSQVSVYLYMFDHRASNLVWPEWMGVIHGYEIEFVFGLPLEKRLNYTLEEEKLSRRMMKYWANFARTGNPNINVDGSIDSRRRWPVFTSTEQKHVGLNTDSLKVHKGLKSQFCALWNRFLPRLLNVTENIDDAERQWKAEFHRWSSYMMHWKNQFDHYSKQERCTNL
as §1

Experiment [2] has as its system human recombinant AChE-induced Aβ1-40 aggregation. The experiment is described as follows: AChE-induced Aβ1-40 aggregation inhibition assay (thioflavin T). The settings on record: inhibitor 100 μM.
Experimental: Aβ1-40, supplied as trifluoroacetate salt, was purchased from Bachem AG (Germany). Aβ1-40 (2 mg mL^−1) was dissolved in HFIP, lyophilized, and then resolubilized in DMSO to get a 2.3 mM Aβ1-40 solution. 1 mM Solutions of tested inhibitors were prepared by dissolution in MeOH.
Aliquots of 2 μL Aβ1-40 peptide were incubated for 24 h at room temperature in 0.215 M sodium phosphate buffer (pH 8.0) at a final concentration of 230 μM. […] The final volume of each vial was 20 μL. Each assay was run in duplicate. To quantify amyloid fibril formation, the thioflavin T fluorescence method was then applied (cf. H. Naiki et al., “Kinetic Analysis of Amyloid Fibril Polymerization in Vitro”, Lab. Invest. 1991, vol. 65, pp. 104-110). The fluorescence intensities due to β-sheet conformation were monitored for 300 s at λem=490 nm (λexc=446 nm). The percent inhibition of the AChE-induced aggregation due to the presence of the tested compound was calculated by the following expression: 100−(IFi/IFo×100) where IFi and IFe are the fluorescence intensities obtained for Aβ plus AChE in the presence and in the absence of inhibitor, respectively, minus the fluorescence intensities due to the respective blanks.

Where a name gives a salt, the structure may show the parent alone. Read-outs that look alike come from different tables or passages of the source. Some results are limits rather than exact numbers.

β-Secretase (BACE-1), sequence (P56817 46-501): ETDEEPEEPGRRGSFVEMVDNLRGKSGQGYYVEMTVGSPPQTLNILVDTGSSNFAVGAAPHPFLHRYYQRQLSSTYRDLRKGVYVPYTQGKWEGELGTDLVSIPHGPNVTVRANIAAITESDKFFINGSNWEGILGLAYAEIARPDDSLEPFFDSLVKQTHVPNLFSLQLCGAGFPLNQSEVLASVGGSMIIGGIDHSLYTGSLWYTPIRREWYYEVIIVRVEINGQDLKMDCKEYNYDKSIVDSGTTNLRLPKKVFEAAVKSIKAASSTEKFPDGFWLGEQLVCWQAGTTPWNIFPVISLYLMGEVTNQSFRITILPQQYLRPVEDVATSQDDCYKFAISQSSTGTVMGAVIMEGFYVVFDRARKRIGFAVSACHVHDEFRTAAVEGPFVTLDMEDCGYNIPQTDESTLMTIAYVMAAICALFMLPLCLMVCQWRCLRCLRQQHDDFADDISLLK

For `CC1=CC2Cc3nc4cc(Cl)ccc4c(NCCCCCCCCNC(=O)c4cc(O)c5c(c4)C(=O)c4cccc(O)c4C5=O)c3C(C1)C2` (racemic) [(±)-(Ia)•HCl, (±)-N-{8-[(3-chloro-6,7,10,11-tetrahydro-9-methyl-7,11-methanocycloocta[b]quinolin-12-yl)amino]octyl}-9,10-dihydro-4,5-dihydroxy-9,10-dioxoanthracene-2-carboxamide], the “Aβ1-42 self-induced aggregation (%)” value at Aβ1-42 is given as 33.1 ± 5.4%. Moreover, the IC50 on human serum BChE was 350 ± 17 nM; on β-Secretase (BACE-1) it was 980 ± 200 nM; in experiment [1], 88.6 ± 6.7 nM. Besides, the “AChE-induced Aβ1-40 aggregation (%)” value in experiment [2] is given as 44.7 ± 8.4%.

Take `CC1=CC2Cc3nc4cc(Cl)ccc4c(NCCCCCCCCCNC(=O)c4cc(O)c5c(c4)C(=O)c4cccc(O)c4C5=O)c3C(C1)C2` (racemic) [(±)-(Ib)•HCl, (±)-N-{9-[(3-chloro-6,7,10,11-tetrahydro-9-methyl-7,11-methanocycloocta[b]quinolin-12-yl)amino]nonyl}-9,10-dihydro-4,5-dihydroxy-9,10-dioxoanthracene-2-carboxamide]: the “Aβ1-42 self-induced aggregation (%)” value at Aβ1-42 amounted to 38.0 ± 4.6%. Also, the results for the concentration for half-maximal inhibition (IC50) (against β-Secretase (BACE-1); in experiment [1]) were 120 ± 100 nM and 32.6 ± 1.7 nM, respectively. The “AChE-induced Aβ1-40 aggregation (%)” value in experiment [2] is reported as 48.7 ± 8.4%.

In the case of `CC1=CC2Cc3nc4cc(Cl)ccc4c(NCCCCCCCCCCNC(=O)c4cc(O)c5c(c4)C(=O)c4cccc(O)c4C5=O)c3C(C1)C2` (racemic) [(±)-(Ic)•HCl, (±)-N-{10-[(3-chloro-6,7,10,11-tetrahydro-9-methyl-7,11-methanocycloocta[b]quinolin-12-yl)amino]decyl}-9,10-dihydro-4,5-dihydroxy-9,10-dioxoanthracene-2-carboxamide], the “Aβ1-42 self-induced aggregation (%)” value on Aβ1-42 is listed as 40.9 ± 4.4%. For the same compound, the IC50 against human serum BChE is 1100 ± 40 nM; against β-Secretase (BACE-1), 1190 ± 200 nM; in experiment [1], 46.7 ± 2.4 nM. The “AChE-induced Aβ1-40 aggregation (%)” value in experiment [2] came out at 29.2 ± 2.4%.

For `CC1=CC2Cc3nc4cc(Cl)ccc4c(NCCCCCCCCCCCNC(=O)c4cc(O)c5c(c4)C(=O)c4cccc(O)c4C5=O)c3C(C1)C2` (racemic) [(±)-(Id)•HCl, (±)-N-{11-[(3-chloro-6,7,10,11-tetrahydro-9-methyl-7,11-methanocycloocta[b]quinolin-12-yl)amino]undecyl}-9,10-dihydro-4,5-dihydroxy-9,10-dioxoanthracene-2-carboxamide], at Aβ1-42, the “Aβ1-42 self-induced aggregation (%)” value came out at 35.3 ± 4.0%. Moreover, the IC50 came out at 645 ± 67 nM on human serum BChE, 1200 ± 100 nM against β-Secretase (BACE-1) and 16.3 ± 2.3 nM in experiment [1] (read-out: IC50 eeAChE). Further, the “AChE-induced Aβ1-40 aggregation (%)” value in experiment [2] is 38.2 ± 2.6%.

For the compound `CC1=CC2Cc3nc4cc(Cl)ccc4c(NCc4ccc(CNC(=O)c5cc(O)c6c(c5)C(=O)c5cccc(O)c5C6=O)cc4)c3C(C1)C2` (racemic) [(±)-(Ie)•HCl, (±)-N-{4-{[(3-chloro-6,7,10,11-tetrahydro-9-methyl-7,11-methanocycloocta[b]quinolin-12-yl)amino]methyl}benzyl}-9,10-dihydro-4,5-dihydroxy-9,10-dioxoanthracene-2-carboxamide], the “Aβ1-42 self-induced aggregation (%)” value on Aβ1-42 amounted to 32.4 ± 3.6%. The figures for the IC50 (against human serum BChE; against β-Secretase (BACE-1); in experiment [1] (read-out: IC50 eeAChE)) were 510 ± 20 nM, 2020 ± 400 nM and 60 ± 7.5 nM, respectively. The “AChE-induced Aβ1-40 aggregation (%)” value in experiment [2] was 35.2 ± 1.8%.

For the compound `CC1=C[C@@H]2Cc3nc4cc(Cl)ccc4c(N)c3[C@H](C1)C2.Cl` [(+)-Huprine Y•HCl, huprine Y, reference compound], the “Aβ1-42 self-induced aggregation (%)” value on Aβ1-42 was determined as 13.2 ± 1.9%. In addition, the IC50 was 170 ± 17 nM at human serum BChE (read-out: IC50 hBChE), greater than 5000 nM at β-Secretase (BACE-1) (read-out: BACE-1 IC50) and 373 ± 50 nM in experiment [1] (read-out: IC50 eeAChE). Also, in experiment [2], the “AChE-induced Aβ1-40 aggregation (%)” value is 9.1 ± 3.6%.

For `CC1=C[C@@H]2Cc3nc4cc(Cl)ccc4c(N)c3[C@H](C1)C2.Cl` [(−)-Huprine Y•HCl, huprine Y, reference compound], the “Aβ1-42 self-induced aggregation (%)” value on Aβ1-42 is 11.5 ± 5.2%. Further, the IC50 was 222 ± 17 nM at human serum BChE (read-out: IC50 hBChE), greater than 5000 nM at β-Secretase (BACE-1) (read-out: BACE-1 IC50) and 0.06 ± 0.01 nM in experiment [1] (read-out: IC50 eeAChE). The “BACE-1 % inhibition at 5 μM” value at β-Secretase (BACE-1) (5 μM) is “(14.0 ± 0.1% at”. The “AChE-induced Aβ1-40 aggregation (%)” value in experiment [2] came to 24.7 ± 1.3%.

As to `O=C(O)c1cc(O)c2c(c1)C(=O)c1cccc(O)c1C2=O` [Rhein, rhein, reference compound], the IC50 on human serum BChE (read-out: IC50 hBChE) is 17000 ± 4220 nM; in experiment [1], 637 ± 87 nM.

As to “huprine Y [(±)-Huprine Y•HCl, reference compound]”, the IC50 in experiment [1] (read-out: IC50 eeAChE) was found to be 0.08 ± 0.01 nM. Moreover, the “AChE-induced Aβ1-40 aggregation (%)” value in experiment [2] is 17.1 ± 4.5%.
